Assay [1] concerns the target Acetylcholinesterase (AChE) (Electrophorus electricus, UniProt O42275). The experiment in a line: Cholinesterase inhibition activity assay. The assay is classed as biochemical. The settings on record: for inhibition at 1 µg/mL: read-out: Percentage of AChE inhibition at 1 µg/mL.
The target in assay [2] is butyrylcholinesterase (BChE) (Equus caballus, UniProt P81908). The experiment in a line: Cholinesterase inhibition activity assay. The assay is classed as biochemical, Equine serum. The settings on record: read-out: BChE Percentage of inhibition at 4 µg/mL.
Sequence of butyrylcholinesterase (BChE) (P81908 whole entry): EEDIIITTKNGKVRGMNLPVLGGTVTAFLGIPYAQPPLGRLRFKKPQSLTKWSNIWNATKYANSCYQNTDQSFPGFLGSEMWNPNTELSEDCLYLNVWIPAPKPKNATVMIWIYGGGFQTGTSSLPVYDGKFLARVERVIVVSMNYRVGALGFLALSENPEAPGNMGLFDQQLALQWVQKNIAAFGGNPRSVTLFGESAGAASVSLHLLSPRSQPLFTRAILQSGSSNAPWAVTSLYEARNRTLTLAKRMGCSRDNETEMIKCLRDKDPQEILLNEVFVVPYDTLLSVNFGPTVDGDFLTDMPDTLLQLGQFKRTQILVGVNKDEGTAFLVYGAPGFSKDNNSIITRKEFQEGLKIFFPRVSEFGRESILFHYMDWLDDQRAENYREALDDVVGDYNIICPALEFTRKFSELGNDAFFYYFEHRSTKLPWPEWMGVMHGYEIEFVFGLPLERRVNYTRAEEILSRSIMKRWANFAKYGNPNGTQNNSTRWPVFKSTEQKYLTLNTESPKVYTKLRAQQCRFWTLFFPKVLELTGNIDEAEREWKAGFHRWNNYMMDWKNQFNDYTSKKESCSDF
Another assay has as its target AChE (Electrophorus electricus, UniProt O42275). The experiment in a line: AChE enzyme kinetic study. The class given is biochemical. The conditions noted are these: substrate ATCI 0.43-6.90 mM; Lineweaver-Burk plot.

One may read the IC50 as the concentration at which inhibition is half-maximal. A higher IC50 goes with weaker potency in that assay.

Structures are written as SMILES. “Also recorded” adds a separate entry of the source.

Sequence of Acetylcholinesterase (AChE) (O42275 24-633): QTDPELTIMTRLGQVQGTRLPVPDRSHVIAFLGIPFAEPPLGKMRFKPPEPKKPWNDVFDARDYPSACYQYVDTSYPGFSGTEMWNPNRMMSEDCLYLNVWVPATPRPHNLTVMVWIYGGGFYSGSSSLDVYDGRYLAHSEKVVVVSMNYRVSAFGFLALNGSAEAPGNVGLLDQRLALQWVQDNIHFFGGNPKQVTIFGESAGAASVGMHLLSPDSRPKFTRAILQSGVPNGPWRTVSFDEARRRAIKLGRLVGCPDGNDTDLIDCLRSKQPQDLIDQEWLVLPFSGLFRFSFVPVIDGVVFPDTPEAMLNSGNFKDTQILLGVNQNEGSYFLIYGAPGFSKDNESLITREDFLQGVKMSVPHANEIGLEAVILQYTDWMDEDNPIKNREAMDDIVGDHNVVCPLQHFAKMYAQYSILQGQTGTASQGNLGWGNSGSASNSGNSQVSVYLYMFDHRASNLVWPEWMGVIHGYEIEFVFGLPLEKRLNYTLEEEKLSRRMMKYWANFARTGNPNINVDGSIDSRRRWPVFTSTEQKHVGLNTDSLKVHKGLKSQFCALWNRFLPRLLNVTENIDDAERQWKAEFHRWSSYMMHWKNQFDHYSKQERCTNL
Sequence of AChE (O42275 24-633): as above

`CC(C)Oc1ccc2c(=O)c3ccccc3oc2c1` [Compound 4, 3-Isopropoxy-9H-xanthen-9-one] yielded an IC50 in assay [1] of 1410 ± 130 nM. For the same compound, the inhibition at 4 µg/mL in assay [2] came to 20.7 ± 1.75%.

Take `CCC#CCOc1ccc2c(=O)c3ccccc3oc2c1` [Compound 19, 3-(Pent-2-yn-1-yloxy)-9H-xanthen-9-one]: in assay [1], the IC50 amounted to 1210 ± 50 nM. Moreover, the inhibition at 4 µg/mL in assay [2] is 5.24 ± 0.25%.

On to `O=c1c2ccccc2oc2cc(O)ccc12` [Compound 1, 3-hydroxyxanthone], for which, in assay [1], the IC50 was found to be 2390 ± 110 nM. In addition, in assay [2], the inhibition at 4 µg/mL turned out to be 6.55 ± 0.82%.

For the compound `C[C@@H](CO)COc1ccc2c(=O)c3ccccc3oc2c1` [Compound 30, (S)-3-(3-hydroxy-2-methylpropoxy)-9H-xanthen-9-one], in assay [1], the IC50 was above 3520 nM and the inhibition at 1 µg/mL is below 50%. Moreover, the inhibition at 4 µg/mL in assay [2] worked out at 5.48 ± 0.31%.

In assay [1], `CC[C@H](C)COc1ccc2c(=O)c3ccccc3oc2c1` [Compound 7, (S)-3-(2-Methylbutoxy)-9H-xanthen-9-one] returned an IC50 of 1740 ± 200 nM. Further, the inhibition at 4 µg/mL in assay [2] came to 24.8 ± 1.96%.

`CC(C)CCOc1ccc2c(=O)c3ccccc3oc2c1` [Compound 6, 3-(Isopentyloxy)-9H-xanthen-9-one]: in assay [1], the IC50 is 1840 ± 210 nM. Besides, the inhibition at 4 µg/mL in assay [2] came to 5.47 ± 0.61%.

On to `O=c1c2ccccc2oc2cc(OCC3CCC3)ccc12` [Compound 10, 3-(Cyclobutylmethoxy)-9H-xanthen-9-one], for which the IC50 in assay [1] was found to be 1610 ± 110 nM. Besides, the inhibition at 4 µg/mL in assay [2] turned out to be 7.01 ± 1.16%.

For `O=c1c2ccccc2oc2cc(OCc3ccccc3)ccc12` [Compound 21, 3-(Benzyloxy)-9H-xanthen-9-one], in assay [1], the IC50 came to 990 ± 190 nM. In addition, in assay [2], the inhibition at 4 µg/mL was found to be 5.04 ± 0.7%.

`C[C@H](CO)COc1ccc2c(=O)c3ccccc3oc2c1` [Compound 29, (R)-3-(3-Hydroxy-2-methylpropoxy)-9H-xanthen-9-one]: in assay [1], the IC50 was above 3520 nM and the inhibition at 1 µg/mL was below 50%. The inhibition at 4 µg/mL in assay [2] turned out to be 13.9 ± 0.96%.

With `C=CCCCCOc1ccc2c(=O)c3ccccc3oc2c1` [Compound 14, 3-(Hex-5-en-1-yloxy)-9H-xanthen-9-one], in assay [1], the IC50 is above 3400 nM and the inhibition at 1 µg/mL was below 50%. The inhibition at 4 µg/mL in assay [2] turned out to be 16.4 ± 1.34%.

In turn, `CC(C)CCCOc1ccc2c(=O)c3ccccc3oc2c1` [Compound 9, 3-((4-Methylpentyl)oxy)-9H-xanthen-9-one] displayed an IC50 in assay [1] of 2070 ± 60 nM. Besides, the inhibition at 4 µg/mL in assay [2] was 11.8 ± 0.98%.

Regarding `CC(C)=CCOc1ccc2c(=O)c3ccccc3oc2c1` [Compound 16, 3-((3-Methylbut-2-en-1-yl)oxy)-9H-xanthen-9-one], the IC50 in assay [1] stood at 1860 ± 150 nM. Besides, in assay [2], the inhibition at 4 µg/mL came to 7.96 ± 1.22%.

Consider `C=CCCCOc1ccc2c(=O)c3ccccc3oc2c1` [Compound 13, 3-(Pent-4-en-1-yloxy)-9H-xanthen-9-one], for which, in assay [1], the IC50 is above 3570 nM and the inhibition at 1 µg/mL was below 50%. Further, in assay [2], the inhibition at 4 µg/mL was found to be 20.9 ± 3.07%.

`COCCCOc1ccc2c(=O)c3ccccc3oc2c1` [Compound 24, 3-(3-Methoxypropoxy)-9H-xanthen-9-one]: in assay [1], the IC50 was above 3520 nM and the inhibition at 1 µg/mL was below 50%. In addition, the inhibition at 4 µg/mL in assay [2] turned out to be 11 ± 1.38%.

In assay [1], `COC(=O)COc1ccc2c(=O)c3ccccc3oc2c1` [Compound 27, Methyl 2-((9-oxo-9H-xanthen-3-yl)oxy)acetate] had an IC50 of 1280 ± 130 nM. Also, in assay [2], the inhibition at 4 µg/mL turned out to be 7.69 ± 0.34%.

Regarding `O=c1c2ccccc2oc2cc(OCCCc3ccccc3)ccc12` [Compound 22, 3-(3-Phenylpropoxy)-9H-xanthen-9-one], the IC50 in assay [1] was found to be 1220 ± 120 nM. For the same compound, in assay [2], the inhibition at 4 µg/mL was 15.5 ± 1.93%.

`O=c1c2ccccc2oc2cc(OCCC3CCCCC3)ccc12` [Compound 11, 3-(2-Cyclohexylethoxy)-9H-xanthen-9-one] displayed an IC50 in assay [1] of 1270 ± 130 nM. Besides, in assay [2], the inhibition at 4 µg/mL amounted to 24.3 ± 2.29%.

`CCCOc1ccc2c(=O)c3ccccc3oc2c1` [Compound 2, 3-Propoxy-9H-xanthen-9-one]: it took 1860 ± 40 nM to reach half-maximal inhibition in assay [1] (IC50). Further, the inhibition at 4 µg/mL in assay [2] amounted to 11.9 ± 1.74%.

On to `CCC(CC)COc1ccc2c(=O)c3ccccc3oc2c1` [Compound 8, 3-(2-Ethylbutoxy)-9H-xanthen-9-one], for which the IC50 in assay [1] is 1150 ± 190 nM. In addition, in assay [2], the inhibition at 4 µg/mL was 12.6 ± 1.26%.

Take `CC#CCOc1ccc2c(=O)c3ccccc3oc2c1` [Compound 18, 3-(But-2-yn-1-yloxy)-9H-xanthen-9-one]: in assay [1], the IC50 was above 3790 nM and the inhibition at 1 µg/mL is below 50%. Besides, the inhibition at 4 µg/mL in assay [2] came to 4.53 ± 0.88%.

Take `O=c1c2ccccc2oc2cc(OCCCCc3ccccc3)ccc12` [Compound 23, 3-(4-Phenylbutoxy)-9H-xanthen-9-one]: inhibition in assay [1] was half-maximal at 880 ± 40 nM (IC50). Also, in assay [2], the inhibition at 4 µg/mL was determined as 9.19 ± 0.55%. For the same compound, at AChE, the “Mode of AChE inhibition” value is “mixed inhibition mechanism; also recorded: mixed-mode inhibition”.

In the case of `C#CC(C)Oc1ccc2c(=O)c3ccccc3oc2c1` (centres unmarked) [Compound 20, 3-(But-3-yn-2-yloxy)-9H-xanthen-9-one], in assay [1], it took 2240 ± 170 nM to reach half-maximal inhibition (IC50). Further, the inhibition at 4 µg/mL in assay [2] was 5 ± 0.74%.

The compound `C=CCCOc1ccc2c(=O)c3ccccc3oc2c1` [Compound 12, 3-(But-3-en-1-yloxy)-9H-xanthen-9-one] returned an IC50 in assay [1] of 2090 ± 210 nM. Further, the inhibition at 4 µg/mL in assay [2] was determined as 5.33 ± 0.17%.

The compound `CC(C)=CCCOc1ccc2c(=O)c3ccccc3oc2c1` [Compound 17, 3-((4-Methylpent-3-en-1-yl)oxy)-9H-xanthen-9-one] yielded an IC50 in assay [1] of 1060 ± 120 nM. In addition, the inhibition at 4 µg/mL in assay [2] was found to be 20.9 ± 3.03%.

The compound `CC(C)COc1ccc2c(=O)c3ccccc3oc2c1` [Compound 5, 3-Isobutoxy-9H-xanthen-9-one] registered an IC50 in assay [1] of 1180 ± 110 nM. In addition, in assay [2], the inhibition at 4 µg/mL stood at 9.78 ± 1.22%.

As for `COCCOCCOc1ccc2c(=O)c3ccccc3oc2c1` [Compound 26, 3-(2-(2-Methoxyethoxy)ethoxy)-9H-xanthen-9-one], 970 ± 60 nM corresponded to half-maximal inhibition in assay [1] (IC50). Further, the inhibition at 4 µg/mL in assay [2] is 17.8 ± 1.6%.

In turn, `CCCCOc1ccc2c(=O)c3ccccc3oc2c1` [Compound 3, 3-Butoxy-9H-xanthen-9-one] came in with an IC50 in assay [1] of 1400 ± 140 nM. In addition, the inhibition at 4 µg/mL in assay [2] came to 17.6 ± 1.89%.

In assay [1], `C=C(C)COc1ccc2c(=O)c3ccccc3oc2c1` [Compound 15, 3-((2-Methylallyl)oxy)-9H-xanthen-9-one] returned an IC50 of 1600 ± 150 nM. In addition, the inhibition at 4 µg/mL in assay [2] was determined as 2.33 ± 0.3%.

Turning to `CCOC(=O)COc1ccc2c(=O)c3ccccc3oc2c1` [Compound 28, Ethyl 2-((9-oxo-9H-xanthen-3-yl)oxy)acetate], the IC50 in assay [1] turned out to be 880 ± 150 nM. In assay [2], the inhibition at 4 µg/mL is 4.11 ± 0.35%. The “Mode of AChE inhibition” value at AChE was “mixed inhibition mechanism; also recorded: mixed-mode inhibition”.

In turn, `COCOCCOc1ccc2c(=O)c3ccccc3oc2c1` [Compound 25, 3-(2-(Methoxymethoxy)ethoxy)-9H-xanthen-9-one] yielded an IC50 in assay [1] of 1370 ± 120 nM. Besides, the inhibition at 4 µg/mL in assay [2] turned out to be 10.3 ± 1.24%.

The values are drawn from publication PMC8759733 (Journal of Enzyme Inhibition and Medicinal Chemistry, 2021).
